Source: patent US11384371B2, “Hydroxylation of branched aliphatic or aromatic substrates employing the amycolatopsis lurida cytochrome P450” (HYPHA DISCOVERY LIMITED, priority 2016, dated 2022)

Tests used:
P450aluC09 [1] = experiment: Cell-free hydroxylase activity of lyophilised recombinant P450aluC09-ferredoxinaluF03-ferredoxin reductaseSCF15A, conversion by UPLC-MS; type: biochemical, Amycolatopsis lurida; conditions: 16-20 hours; for hydroxylase activity (conversion to hydroxylated product): 0.1 mg/ml substrate
Protocol: Lyophilised material of recombinant P450aluC09, ferredoxinaluF03 and ferredoxin reductaseSCF15A was made as described in examples 5 and 6 and suspended in water to a final concentration of 2.9 μM of P450aluC09 and 919 UN of ferredoxin reductaseSCF15A. […] 50 mM potassium phosphate pH 7.4, 5 mM MgCl2, 0.1 mg/ml substrate compound such as bosentan (CarboSynth Ltd, UK), buparvaquone (MedChemtronica, Sweden), BIRB796 (Stratech Scientific Limited, UK), diclofenac (Sigma-Aldrich, UK), epothilone B (LC Laboratories, USA) or ritonavir (TCI, UK), tivantinib (MedChemtronica, Sweden), 2.4 μM of P450AluC09, 767 UN of ferredoxin reductaseSCF15A, 5 mM G6P, 1 mM NADP, 2 UN/ml G6PDH in a final volume of 100 μL. After 16-20 hours, reactions were extracted with an equal volume of acetonitrile, centrifuged to remove precipitated proteins and conversion assessed by UPLC-MS analysis.
The method in Example 7 was followed except for the buffer exchange section. Four different buffers were chosen: a) 50 mM Acetate pH 5, 100 mM NaCl, 5 mM MgCl2; b) 50 mM potassium phosphate pH7.5, 5 mM MgCl2; c) 50 mM Tris pH 8, 100 mM NaCl, 5 mM MgCl2; d) 50 mM Piperidine pH11, 100 mM NaCl, 5 mM MgCl2. For each buffer condition 1.5 ml of resuspended lyophilised crude extract was exchanged using Vivaspin 20K cut off by performing 3 cycles of concentration and then dilution of the material with the new buffer. Exchanging in 50 mM potassium phosphate pH7.5, 5 mM MgCl2, the usual buffer for preparing and assessment of the enzyme preparations, provided the control for the robustness of the material during the buffer exchange process. […] Of particular note is the activity of this recombinant enzyme at such elevated pH values e.g., pH value of 11. […] Other advantages of catalysis at higher pH are the ability to directly utilise the product from a prior step resulting in such products, such as chemical synthesis, base-catalysed hydrolysis of a feedstock, or reaction product from another enzyme where increasing pH has been used to stop that reaction

P450aluC09 [2] = experiment: Whole-cell biocatalysis (hydroxylation) by recombinant E. coli expressing P450aluC09 with redox partners; type: cell-based, Amycolatopsis lurida
[3] = tested on: P450aluC09 fused in-frame with the reductase domain of P450BM3; experiment: Whole-cell biocatalysis by E. coli expressing P450aluC09 fused with the reductase domain of P450BM3; type: cell-based, Amycolatopsis lurida / Bacillus megaterium; conditions: pET21a-AluC09_BM3, E. coli BL21 Star (DE3) pLysS
Protocol: (§1) After four hours of incubation at 27° C. and 200 rpm, 2.5 mL of induced culture was dosed with 10 μL of either bosentan or diclofenac (25 mg/mL each) in a 24-well block (Enzyscreen). The whole-cell biocatalysis reaction was allowed to further incubate for 24 hours at 30° C. and 300 rpm. The reaction was stopped with an equal amount of acetonitrile and conversion assessed by UPLC-MS analysis in a similar manner to that described in Example 7.
The P450aluC09 was engineered to fuse in-frame to the reductase domain of P450BM3 from Bacillus megaterium in a similar manner described in Scheps et al. Microb Biotechnol. 2013; 6(6):694-707.
Whole-cell hydroxylating activity of E. coli BL21 Star (DE3) pLysS with either pQR368bb-aluC09-aluF03 or pET21a-AluC09_BM3 plasmid were compared against the substrates bosentan and diclofenac in a similar manner described in Example 10.

P450aluC09 [4] = experiment: Whole-cell biocatalysis (hydroxylation) by recombinant E. coli expressing P450aluC09 with redox partners; type: cell-based, Amycolatopsis lurida; remark: listed apart in the source
Protocol: The recombinant expression strains E. coli BL21 Star (DE3) pLysS with pQR368bb-aluC09-aluF03 and E. coli BL21 Star (DE3) pLysS with p3C.1-AluC09-AluF03 were cultured in Terrific Broth media as in Example 5 and gene expression was induced by adding IPTG to reach the final concentration of 1 mM. The culture was supplemented with FeSO4 and 5′-aminolevulinic acid as in Example 5.
as §1

[5] = Ferredoxinfd1 from S. griseus 11796 (p3C-AluC09), E. coli BL21 Star (DE3) pLysS
[6] = Kanamycin resistant strain (pHD02-AluC09-AluF03), E. coli BL21 Star (DE3) pLysS
[7] = host E. coli BL21 (DE3) pLysS, pQR368bb-aluC09-aluF03
[8] = host E. coli BL21 (DE3), pQR368bb-aluC09-aluF03
[9] = host E. coli BL21 Star (DE3), pQR368bb-aluC09-aluF03
[10] = Ampicillin resistant strain (pQR368bb-aluC09-aluF03), E. coli BL21 Star (DE3) pLysS
[11] = High copy number strain (p3C.1-AluC09-AluF03), E. coli BL21 Star (DE3) pLysS, 24 hours 30° C.
[12] = Medium copy number strain (pQR368bb-aluC09-aluF03), E. coli BL21 Star (DE3) pLysS, 24 hours 30° C.
[13] = Native ferredoxinaluF03 (p3C.1-AluC09-AluF03), E. coli BL21 Star (DE3) pLysS
[14] = ferredoxinaluF03 and ferredoxin reductaseSCF15A (pQR368bb-aluC09-aluF03), E. coli BL21 Star (DE3) pLysS, Table 7 comparison
[15] = host E. coli BL21 Star (DE3) pLysS, pQR368bb-aluC09-aluF03
[16] = pH values of 7.5 and above (pH 8-11)

Row | Compound | hydroxylase activity (conversion to hydroxylated product) (P450aluC09 [1]; 10° C.) | hydroxylase activity (conversion to hydroxylated product) (P450aluC09 [1]; 22° C.) | hydroxylase activity (conversion to hydroxylated product) (P450aluC09 [1]; 27° C. (standard condition)) | hydroxylase activity (conversion to hydroxylated product) (P450aluC09 [1]; 37° C.) | % yield of parent-derived products (P450aluC09 [2]; [5]) | % yield of parent-derived products (P450aluC09 [2]; [6]) | % yield of parent-derived products (P450aluC09 [2]; [7]) | % yield of parent-derived products (P450aluC09 [2]; [8]) | % yield of parent-derived products (P450aluC09 [2]; [9]) | % yield of parent-derived products [3] | % yield of parent-derived products (P450aluC09 [4]; [10]) | % yield of parent-derived products (P450aluC09 [4]; [11]) | % yield of parent-derived products (P450aluC09 [4]; [12]) | % yield of parent-derived products (P450aluC09 [4]; [13]) | % yield of parent-derived products (P450aluC09 [4]; [14]) | % yield of parent-derived products (P450aluC09 [4]; [15]) | hydroxylase activity on the substrate at reaction pH (P450aluC09 [1]; pH5 (50 mM Acetate)) | hydroxylase activity on the substrate at reaction pH (P450aluC09 [1]; [16]) | further results
1 | O=C(O)Cc1ccccc1Nc1c(Cl)cc(O)cc1Cl [4′-HO-Diclofenac, 4′-hydroxydiclofenac] | 14% | 16% | 21% | 13% | 11.5% | 6.0% | 11.3% | >1% | 1.5% | 4.7% | 7.5% | 8.7% | 27.4% | 60.3% | 46.0% | 7.5% | – | – | –
2 | COc1ccccc1Oc1c(NS(=O)(=O)c2ccc(C(C)(C)C)cc2)nc(-c2ncccn2)nc1OCCO [bosentan, reference compound] | – | – | – | – | – | – | – | – | – | – | – | – | – | – | – | – | only barely detectable | remain | –
3 | O=C(O)Cc1ccccc1Nc1c(Cl)cccc1Cl [diclofenac, reference compound] | – | – | – | – | – | – | – | – | – | – | – | – | – | – | – | – | only barely detectable | remain | –
4 | COc1ccccc1Oc1c(NS(=O)(=O)c2ccc(C(C)(C)CO)cc2)nc(-c2ncccn2)nc1OCCO [HO-Bosentan] | 91% | 64% | 86% | 33% | 6.3% | 41.6% | 34.1% | 13.6% | 9.1% | 9.3% | 26.6% | 18.2% | 52.6% | 52.6% | 29.5% | 26.6% | – | – | hydroxylase activity (conversion to hydroxylated product) (P450aluC09 [1]; 45° C.): 19%; % yield of parent-derived products (P450aluC09 [2]; Ferredoxin reductasecamA and ferredoxincamB from P. putida (pHD02-AluC09-PdR-PdX), E. coli BL21 (DE3)): 21.2%; % yield of parent-derived products (P450aluC09 [2]; ferredoxinaluF03 and ferredoxin reductaseSCF15A (pHD02-AluC09-AluF03), E. coli BL21 (DE3)): 27.4%
5 | CC(C)[C@H](NC(=O)N(C)Cc1csc(C(C)(C)O)n1)C(=O)N[C@@H](Cc1ccccc1)C[C@H](O)[C@H](Cc1ccccc1)NC(=O)OCc1cncs1 [ε-HO-Ritonavir, ε-HO—N-methylisopropylthiazoloylmethyl-ritonavir] | 36% | 36% | 34% | 19% | – | – | – | – | – | – | – | – | – | – | – | – | – | – | –
6 | O=C(O)Cc1cc(O)ccc1Nc1c(Cl)cccc1Cl [5-HO-Diclofenac, 5-hydroxydiclofenac] | 17% | 14% | 12% | 1% | 4.2% | 48.1% | 45.1% | 10.3% | 6.5% | <1% | 35.2% | 23.8% | 60.3% | 23.8% | 12.4% | 35.2% | – | – | –
